The values below come from ChEMBL document CHEMBL4020715, “Structure-activity relationship study of vitamin D analogs with oxolane group in their side chain” (Eur J Med Chem, 2017).

pEC50: −log10 of the molar value. Calls of active or inactive are those of the source. The rule behind the calls is not given here. Bounds are passed on as bounds.

Holding throughout (type): cell-based
Assay [1] addresses T1, Vitamin D3 receptor A (Danio rerio, UniProt Q9PTN2).
T1 sequence (Q9PTN2 whole entry): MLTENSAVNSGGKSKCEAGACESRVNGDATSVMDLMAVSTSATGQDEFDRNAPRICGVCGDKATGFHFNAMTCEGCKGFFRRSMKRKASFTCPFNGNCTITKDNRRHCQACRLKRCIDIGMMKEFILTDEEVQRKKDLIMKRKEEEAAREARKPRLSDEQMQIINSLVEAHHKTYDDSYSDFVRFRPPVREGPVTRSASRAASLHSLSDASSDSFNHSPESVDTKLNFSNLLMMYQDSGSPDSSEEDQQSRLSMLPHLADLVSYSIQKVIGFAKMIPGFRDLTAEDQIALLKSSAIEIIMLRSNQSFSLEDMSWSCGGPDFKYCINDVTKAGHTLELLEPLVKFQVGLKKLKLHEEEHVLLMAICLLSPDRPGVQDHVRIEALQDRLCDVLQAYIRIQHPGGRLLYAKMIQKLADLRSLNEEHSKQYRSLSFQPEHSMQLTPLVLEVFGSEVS
Description: Agonist activity at zebrafish VDR LBD (156 to 453 residues) expressed in HEK293 EBNA cells harboring human CYP24-Tk-Luc plasmid assessed as induction of CYP24a1 gene after 18 hrs by dual-luciferase transcriptional reporter gene assay.

Assay [2] deals with T2, Vitamin D3 receptor A (Danio rerio) (UniProt Q9PTN2).
T2 sequence (whole entry): T1 sequence (Q9PTN2 whole entry)
Description: Agonist activity at zebrafish VDR LBD (156 to 453 residues) expressed in HEK293 EBNA cells harboring human CYP24-Tk-Luc plasmid assessed as induction of CYP24a1 gene at 1000 nM after 18 hrs by dual-luciferase transcriptional reporter gene assay relative to control. On the technique in general: Reporter assays use an easily measured gene product as a stand-in for the process of interest.

Assay [3] concerns the target T3, Vitamin D3 receptor (Homo sapiens) (UniProt P11473).
T3 sequence (whole entry): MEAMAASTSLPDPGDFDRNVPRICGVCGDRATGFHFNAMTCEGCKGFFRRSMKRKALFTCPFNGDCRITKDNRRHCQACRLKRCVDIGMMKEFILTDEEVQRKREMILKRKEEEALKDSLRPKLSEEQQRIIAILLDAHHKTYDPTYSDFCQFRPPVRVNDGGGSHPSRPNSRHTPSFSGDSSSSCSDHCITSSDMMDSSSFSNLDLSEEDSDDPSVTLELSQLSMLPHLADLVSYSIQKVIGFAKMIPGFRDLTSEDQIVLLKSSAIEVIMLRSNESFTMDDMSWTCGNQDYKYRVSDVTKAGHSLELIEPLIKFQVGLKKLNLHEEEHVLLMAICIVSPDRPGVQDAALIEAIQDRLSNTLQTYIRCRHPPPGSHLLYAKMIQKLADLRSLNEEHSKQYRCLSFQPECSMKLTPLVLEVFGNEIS
Description: Agonist activity at VP16-fused human full length VDR expressed in COS7 cells assessed as corepressor Gal4 DBD-fused NCOR NRID release at 10 to 1000 nM after 48 hrs by luciferase reporter gene assay based mammalian two-hybrid assay.

Assay [4] has as its target T3, Vitamin D3 receptor (Homo sapiens). Description: Agonist activity at VP16-fused human full length VDR expressed in COS7 cells assessed as corepressor Gal4 DBD-fused SMRT NRID release at 10 to 1000 nM after 48 hrs by luciferase reporter gene assay based mammalian two-hybrid assay.
Assay [5] has as its target T2, Vitamin D3 receptor A (Danio rerio). Description: Agonist activity at zebrafish VDR LBD (156 to 453 residues) expressed in HEK293 EBNA cells harboring human CYP24-Tk-Luc plasmid assessed as induction of CYP24a1 gene at 100 nM after 18 hrs by dual-luciferase transcriptional reporter gene assay.
The target is the same in assay [6]. Description: Agonist activity at zebrafish VDR LBD (156 to 453 residues) expressed in HEK293 EBNA cells harboring human CYP24-Tk-Luc plasmid assessed as induction of CYP24a1 gene at 0.1 nM after 18 hrs by dual-luciferase transcriptional reporter gene assay.

As for `C=C1/C(=C\C=C2/CCC[C@]3(C)[C@@H]([C@H](C)[C@@H]4CC[C@H](C(C)(C)O)O4)CC[C@@H]23)C[C@@H](O)C[C@H]1O`, the negative-log EC50 (pEC50) (in general, −log10 of the EC50, conventionally taken in molar units) in assay [1] is less than 7.00. In assay [2], the Efficacy stood at 47%. Besides, the result in assay [3] and in assay [4] was Active.

`C=C1/C(=C\C=C2/CCC[C@]3(C)[C@@H]([C@H](C)CCCC(C)(C)O)CC[C@@H]23)C[C@@H](O)C[C@H]1O`: the Efficacy in assay [2] stood at 100%.

Regarding `C=C1/C(=C\C=C2/CCC[C@]3(C)[C@@H]([C@H](C)[C@@H]4CC[C@@H](C(C)(C)O)O4)CC[C@@H]23)C[C@@H](O)C[C@H]1O`, the outcome in assay [5], in assay [3] and in assay [4] was Active. The negative logarithm of the EC50 (pEC50) in assay [1] is less than 7.00. The Efficacy in assay [2] came out at 90%.

`C=C1/C(=C\C=C2/CCC[C@@]3(C)[C@H]2CC[C@@H]3[C@]2(C)C[C@@H](CC(C)(C)O)CO2)C[C@@H](O)C[C@@H]1O`: the outcome in assay [6] was Active.

Regarding `C=C1/C(=C\C=C2/CCC[C@]3(C)[C@@H]([C@H](C)[C@H]4CC[C@@H](C(C)(C)O)O4)CC[C@@H]23)C[C@@H](O)C[C@H]1O`, the pEC50 in assay [1] was less than 7.00. For the same compound, the Efficacy in assay [2] stood at 100%. The outcome in assay [3] and in assay [4] was Active.
